According to patent publication US8377913B2, “Vitamin D receptor activators and methods of making” (AbbVie Inc., priority 2007, dated 2013):

System: Thrombospondin mRNA in human coronary artery smooth muscle cells (CASMC)
Test: Thrombospondin mRNA in CASMC
Assay type: cell-based
Conditions: Homo sapiens
Protocol: Primary culture of human coronary artery smooth muscle cells (CASMC) (commercially available from Cambrex, Walkersville, Md.) were grown in smooth muscle growth medium SmGM-2 (commercially available from Lonza Bioscience) containing 5.5 mM glucose, 5% FBS, 50 μg/ml gentamicin, 50 ng/ml amphotericin-B, 5 μg/ml insulin, 2 ng/ml human recombinant fibroblast growth factor (hFGF), and 0.5 ng/ml human recombinant epidermal growth factor (hEGF) at 37° C. in a humidified 5% CO2-95% air atmosphere. Cells were grown to >80% confluence and used within five passages.
Real-time reverse transcription-PCR was performed with a MyiQ Real-Time PCR Detection System (BioRad, Hercules, Calif.). Each sample has a final volume of 25 μl containing 100 ng of cDNA, […] each of the forward and reverse PCR primers and […] of the TaqMan™ probe for the gene of interest (Applied Biosystems, Foster City, Calif.). Temperature conditions consisted of a step of 5 minutes at 95° C., followed by 40 cycles of 60° C. for 1 minute and 95° C. for 15 seconds. Data was collected during each extension phase of the PCR reaction and analyzed with the software package (BioRad, Hercules, Calif.). Threshold cycles were determined for each gene. […]

- IC50: 4 pM
Compound: C=C1[C@H](O)CC(=C/C=C2\CCC[C@]3(C)[C@@H]([C@H](C)COC(=O)C(C)(C)C)CC[C@@H]23)C[C@H]1O [Example 1, (2S)-2-[(1R,3R,7E, 17β)-1,3-dihydroxy-2-methylene-9,10-secoestra-5,7-dien-17-yl]propyl pivalate]
